Measured values reported in patent publication EP0083750A1, “Antimycotic azolyl butanols” (BAYER AG, priority 1981, dated 1983).
Converted amounts (≈) assume the structure as drawn. Counter-ions that a name gives are not always drawn.

Columns and labels:
Type in all cases: cell-based
[1] = system: Dermatophyten, Schimmelpilze, Hefen; experiment: Antimycotic in-vitro activity, serial dilution test, overall comparison with prior art; details: in-vitro Reihenverdünnungstest
Experimental: (§1) Versuchsbeschreibung: • Die in-vitro-Prüfungen wurden im Reihenverdünnungstest mit Keiminokula von durchschnittlich 5 x 10^4 Keimen/ml Substrat durchgeführt. Als Nährmedium dienten • a) für Dermatophyten und Schimmelpilze: Sabourand's milieu d'epreuve • b) für Hefen: • Fleischextrakt-Traubenzucker-Bouillon.
(§2) Die Bebrütungstemperatur betrug 20°C, die Bebrütungsdauer lag bei 24 bis 96 Stunden bei Hefen und 96 Stunden bei Dermatophyten und Schimmelpilzen.

Trichophyton mentagr. = experiment: Antimycotic in-vitro activity, serial dilution test (MIC); details: 96 h, Reihenverdünnungstest, 5 x 10^4 Keimen/ml Substrat, Sabourand's milieu d'epreuve, 20°C, 96 Stunden, read-out: MHK-Werte in γ/ml Nährmedium, Trichophyton mentagr.
Experimental: as §1, §2

Aspergillus fumig. = experiment: as above; details: 96 h, Reihenverdünnungstest, 5 x 10^4 Keimen/ml Substrat, Sabourand's milieu d'epreuve, 20°C, 96 Stunden, read-out: MHK-Werte in γ/ml Nährmedium, Aspergillus fumig.
Experimental: as §1, §2

Microsporum canis = experiment: as above; details: 96 h, Reihenverdünnungstest, 5 x 10^4 Keimen/ml Substrat, Sabourand's milieu d'epreuve, 20°C, 96 Stunden, read-out: MHK-Werte in γ/ml Nährmedium, Microsporum canis
Experimental: as §1, §2

Candida albicans = experiment: as above; details: Reihenverdünnungstest, 5 x 10^4 Keimen/ml Substrat, Fleischextrakt-Traubenzucker-Bouillon, 20°C, 24 bis 96 Stunden, read-out: MHK-Werte in γ/ml Nährmedium, Candida albicans
Experimental: as §1, §2

Torulopsis glabrata = experiment: as above; details: Nakaseomyces glabratus; Reihenverdünnungstest, 5 x 10^4 Keimen/ml Substrat, Fleischextrakt-Traubenzucker-Bouillon, 20°C, 24 bis 96 Stunden; read-out: MHK-Werte in γ/ml Nährmedium, Torulopsis glabrata
Experimental: as §1, §2

| SMILES | antimykotische Wirkung im Vergleich zu den bekannten Verbindungen (A) und (B) [1] | MIC (Trichophyton mentagr.) | MIC (Aspergillus fumig.) | MIC (Microsporum canis) | MIC (Candida albicans) | MIC (Torulopsis glabrata) |
| --- | --- | --- | --- | --- | --- | --- |
| C=CCCC(C(O)C(C)(C)COc1ccc(Cl)c(Cl)c1)n1cncn1 (centres unmarked) [Beispiel 95] | bessere antimykotische Wirkung | < 1 µg/mL | 8 µg/mL (≈ 20.8 µM) | < 1 µg/mL | 2 µg/mL (≈ 5.2 µM) | 32 µg/mL (≈ 83.3 µM) |
| CC(C)(COc1ccc(Br)cc1)C(O)C(CCOc1ccc(Cl)cc1Cl)n1cncn1 (centres unmarked) [Beispiel 45] | bessere antimykotische Wirkung | < 1 µg/mL | 32 µg/mL (≈ 60.5 µM) | 8 µg/mL (≈ 15.1 µM) | < 1 µg/mL | 4 µg/mL (≈ 7.56 µM) |
| CC(C)(Oc1ccc(Cl)cc1Cl)C(O)C(Cc1ccc(Cl)cc1Cl)n1cncn1 (centres unmarked) [Beispiel 25] | bessere antimykotische Wirkung | < 1 µg/mL | > 64 µg/mL | 8 µg/mL (≈ 16.8 µM) | > 64 µg/mL | 64 µg/mL (≈ 135 µM) |
| CC(C)(COc1ccc(Cl)cc1)C(O)Cn1cncn1 (centres unmarked) [Beispiel 4] | bessere antimykotische Wirkung | 16 µg/mL (≈ 54.1 µM) | 16 µg/mL (≈ 54.1 µM) | 8 µg/mL (≈ 27 µM) | 32 µg/mL (≈ 108 µM) | > 64 µg/mL |
| CC(C)(COc1ccc(Br)cc1)C(O)C(CC1CCCCC1)n1cncn1 (centres unmarked) [Beispiel 35] | bessere antimykotische Wirkung | < 1 µg/mL | < 1 µg/mL | 8 µg/mL (≈ 18.3 µM) | 32 µg/mL (≈ 73.3 µM) | < 1 µg/mL |
| CCCCC(C(O)C(C)(C)CSc1ccc(Cl)cc1)n1cncn1 (centres unmarked) [Beispiel 41] | bessere antimykotische Wirkung | < 1 µg/mL | > 64 µg/mL | < 1 µg/mL | < 1 µg/mL | 2 µg/mL (≈ 5.44 µM) |
| CC(C)(Oc1ccc(Cl)cc1Cl)C(O)C(Cc1ccc(Cl)cc1)n1cncn1 (centres unmarked) [Beispiel 1, 5-(4-Chlorphenyl)-2-(2,4-dichlorphen-oxy)-2-methyl-4-(1,2,4-triazol-1-yl)-pentan-3-ol-hydrochlorid] | bessere antimykotische Wirkung | 2 µg/mL | 64 µg/mL | 64 µg/mL | 16 µg/mL | 64 µg/mL |
| CCOCC(C)(C)C(O)C(Cc1ccc(Cl)cc1)n1cncn1 (centres unmarked) [Beispiel 42] | bessere antimykotische Wirkung | < 1 µg/mL | 8 µg/mL (≈ 23.7 µM) | 8 µg/mL (≈ 23.7 µM) | 2 µg/mL (≈ 5.92 µM) | 16 µg/mL (≈ 47.4 µM) |
| CC(C)(CSc1ccccc1)C(O)C(Cc1ccc(Cl)cc1)n1cncn1 (centres unmarked) [Beispiel 37] | bessere antimykotische Wirkung | < 1 µg/mL | 64 µg/mL (≈ 159 µM) | 4 µg/mL (≈ 9.95 µM) | 4 µg/mL (≈ 9.95 µM) | 2 µg/mL (≈ 4.98 µM) |
| C=CCC(C(O)C(C)(C)Oc1ccc(Cl)cc1Cl)n1cncn1 (centres unmarked) [Beispiel 53] | bessere antimykotische Wirkung | 2 µg/mL (≈ 5.61 µM) | 8 µg/mL (≈ 22.5 µM) | 2 µg/mL (≈ 5.61 µM) | 4 µg/mL (≈ 11.2 µM) | 32 µg/mL (≈ 89.8 µM) |
| CC(C)(Oc1ccc(Cl)cc1)C(O)C(Cc1ccccc1)n1cncn1 (centres unmarked) [Beispiel 26] | bessere antimykotische Wirkung | < 1 µg/mL | 8 µg/mL (≈ 21.5 µM) | < 1 µg/mL | < 1 µg/mL | 4 µg/mL (≈ 10.8 µM) |
| CCOCC(C)(C)C(O)C(Cc1ccc(Cl)c(Cl)c1)n1cncn1 (centres unmarked) [Beispiel 86] | bessere antimykotische Wirkung | 2 µg/mL (≈ 5.37 µM) | 8 µg/mL (≈ 21.5 µM) | 4 µg/mL (≈ 10.7 µM) | 16 µg/mL (≈ 43 µM) | 32 µg/mL (≈ 86 µM) |
| CC(C)(CSc1ccc(Cl)cc1)C(O)C(Cc1ccc(Cl)cc1Cl)n1cncn1 (centres unmarked) [Beispiel 39] | bessere antimykotische Wirkung | < 1 µg/mL | 64 µg/mL (≈ 136 µM) | 16 µg/mL (≈ 34 µM) | < 1 µg/mL | < 1 µg/mL |
| CCCCC(C(O)C(C)(C)Oc1ccc(C(=O)OCC)cc1)n1cncn1 (centres unmarked) [Beispiel 62] | bessere antimykotische Wirkung | 2 µg/mL (≈ 5.33 µM) | 8 µg/mL (≈ 21.3 µM) | 8 µg/mL (≈ 21.3 µM) | 8 µg/mL (≈ 21.3 µM) | 32 µg/mL (≈ 85.2 µM) |
| CC(C)(Oc1ccc(Cl)cc1)C(O)C(Cc1c(Cl)cccc1Cl)n1cncn1 (centres unmarked) [Beispiel 29] | bessere antimykotische Wirkung | < 1 µg/mL | > 64 µg/mL | 4 µg/mL (≈ 9.08 µM) | < 1 µg/mL | 4 µg/mL (≈ 9.08 µM) |
| CC(C)(Oc1ccc(Cl)cc1Cl)C(O)C(Cc1ccccc1)n1cncn1 (centres unmarked) [Beispiel 28] | bessere antimykotische Wirkung | 2 µg/mL (≈ 4.92 µM) | 16 µg/mL (≈ 39.4 µM) | 4 µg/mL (≈ 9.84 µM) | 16 µg/mL (≈ 39.4 µM) | 64 µg/mL (≈ 158 µM) |
| COCC(C)(C)C(O)C(Cc1ccc(Cl)cc1Cl)n1cncn1 (centres unmarked) [Beispiel 7] | bessere antimykotische Wirkung | 8 µg/mL (≈ 22.3 µM) | 64 µg/mL (≈ 179 µM) | 8 µg/mL (≈ 22.3 µM) | 8 µg/mL (≈ 22.3 µM) | 16 µg/mL (≈ 44.7 µM) |
| CC(C)(COc1ccc(Cl)cc1)C(O)C(CC1CCCCC1)n1cncn1 (centres unmarked) [Beispiel 2, 1-(4-Chlorphenoxy)-5-cyclohexyl-2,2-dimethyl-4-(1,2,4-triazol-1-yl)-pentan-3-ol] | bessere antimykotische Wirkung | < 1 µg/mL | 2 µg/mL (≈ 5.1 µM) | 2 µg/mL (≈ 5.1 µM) | < 1 µg/mL | < 1 µg/mL |
| Cc1ccc(CC(C(O)C(C)(C)COc2ccc(Cl)cc2)n2cncn2)cc1 (centres unmarked) [Beispiel 10] | bessere antimykotische Wirkung | < 1 µg/mL | 4 µg/mL (≈ 10 µM) | < 1 µg/mL | < 1 µg/mL | < 1 µg/mL |
| CC(C)(CSc1ccc(Cl)cc1)C(O)C(Cc1ccc(Cl)cc1)n1cncn1 (centres unmarked) [Beispiel 38] | bessere antimykotische Wirkung | < 1 µg/mL | 64 µg/mL (≈ 147 µM) | < 1 µg/mL | < 1 µg/mL | < 1 µg/mL |
| CCCCC(C(O)C(C)(C)Cc1ccc(Cl)cc1Cl)n1cncn1 (centres unmarked) [Beispiel 81] | bessere antimykotische Wirkung | < 1 µg/mL | < 1 µg/mL | 2 µg/mL (≈ 5.4 µM) | 2 µg/mL (≈ 5.4 µM) | 8 µg/mL (≈ 21.6 µM) |
| CC(C)(CSc1ccc(Cl)cc1)C(O)Cn1ccnc1 (centres unmarked) [Beispiel 3, 4-(4-Chlorphenylmercapto)-3,3-dimethyl-1-(imidazol-1-yl)-butan-2-ol] | bessere antimykotische Wirkung | 8 µg/mL (≈ 25.7 µM) | 16 µg/mL (≈ 51.5 µM) | 2 µg/mL (≈ 6.43 µM) | 2 µg/mL (≈ 6.43 µM) | 2 µg/mL (≈ 6.43 µM) |
| CC(C)(CSc1ccc(Cl)cc1)C(O)C(Cc1ccc(F)cc1)n1cncn1 (centres unmarked) [Beispiel 40] | – | < 1 µg/mL | < 1 µg/mL | < 1 µg/mL | < 1 µg/mL | 4 µg/mL (≈ 9.52 µM) |
